In patent publication US20180186755A1, “LYSYL OXIDASE-LIKE 2 INHIBITORS AND USES THEREOF” (PharmAkea, Inc., priority 2015, published 2018) one finds IC50 data, which are given here for 16 molecules.

Counter-ions that a name gives are not always drawn.

For orientation: IC50 means the concentration that inhibits the measured activity by half. A low value points to inhibition by little substance.

The experiment concerns the target T1, human LOXL2 (Homo sapiens, UniProt Q9Y4K0).
T1 construct: expressed in transfected cells; 10-20x concentrated conditioned media used as the enzyme source
T1 sequence (Q9Y4K0 26-774): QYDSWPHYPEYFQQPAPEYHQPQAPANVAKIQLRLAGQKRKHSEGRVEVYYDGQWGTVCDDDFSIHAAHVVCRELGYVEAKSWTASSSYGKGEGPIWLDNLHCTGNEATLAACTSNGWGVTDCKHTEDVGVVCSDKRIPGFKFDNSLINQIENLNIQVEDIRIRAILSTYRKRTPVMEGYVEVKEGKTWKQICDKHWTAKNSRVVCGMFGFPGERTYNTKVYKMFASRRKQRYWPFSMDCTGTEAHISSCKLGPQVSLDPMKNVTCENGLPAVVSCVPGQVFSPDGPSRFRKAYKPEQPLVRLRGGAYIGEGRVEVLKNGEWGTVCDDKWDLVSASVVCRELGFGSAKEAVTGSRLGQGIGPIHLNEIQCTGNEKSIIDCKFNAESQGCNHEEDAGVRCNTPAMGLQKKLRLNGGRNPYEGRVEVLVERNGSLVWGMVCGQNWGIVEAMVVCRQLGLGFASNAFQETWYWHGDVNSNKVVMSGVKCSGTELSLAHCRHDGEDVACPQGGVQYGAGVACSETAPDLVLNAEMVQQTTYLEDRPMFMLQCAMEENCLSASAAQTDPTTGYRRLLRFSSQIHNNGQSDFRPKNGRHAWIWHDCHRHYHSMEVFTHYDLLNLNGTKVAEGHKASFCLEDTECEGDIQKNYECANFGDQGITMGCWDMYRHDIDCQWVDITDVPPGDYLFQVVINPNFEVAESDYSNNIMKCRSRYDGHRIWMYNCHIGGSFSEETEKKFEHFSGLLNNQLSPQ
The experiment in a line: Human LOXL2 amine oxidase activity assay (Amplex Red fluorescence). The format is biochemical. The conditions noted are these: concentrated conditioned media from CHO cells stably expressing human LOXL2; 2 h at 37° C. preincubation; DAP substrate. As for the experimental part:
Example B-1: Human LOXL2 Amine Oxidase Activity Assay
LOXL2 amine oxidase activity is evaluated by measuring Amplex Red fluorescence using 10-20× concentrated conditioned media from CHO cells stably expressing human LOXL2.
To assay for amine oxidase activity, 10 μL of the concentrated conditioned media is incubated with 2 μL of test compound in DMSO and 73 μL Assay Buffer (50 mM Borate Buffer, pH8) for 2 h at 37° C. After the 2 h incubation, 5 ul of 10 mM 1,5-Diaminopentane (DAP) diluted in Assay Buffer and 10 μl of Amplex Red Mix (8.5 μl Assay Buffer+0.5 μl of 10 mM Amplex Red+1 μl of 500 U/ml Horseradish Peroxidase) are added and the plate mixed and immediately placed on the FlexStaion for fluorescence measurements. Fluorescence is read in kinetic mode every 2 min for 1 hour at excitation=544 and emission=590. The amine oxidase activity is calculated from the slope of the linear portion of the curve.
Regarding `NCc1cc(Oc2cccc(C(=O)N[C@@H](CO)c3ccccc3)c2)ncn1` [Compound 1-57, (R)-3-((6-(Aminomethyl)pyrimidin-4-yl)oxy)-N-(2-hydroxy-1-phenylethyl)benzamide], the IC50 was under 100 nM.

As to `NCc1cc(Oc2cccc(Oc3ccccc3)c2)ncn1` [Compound 1-2, (6-(3-Phenoxyphenoxy)pyrimidin-4-yl)methanamine hydrochloride], the IC50 is under 100 nM.

For the molecule `NCc1cc(OCc2cccc(C(=O)N3CCN(c4ccccc4)CC3)c2)ncn1` [Compound 1-91, (3-(((6-(Aminomethyl)pyrimidin-4-yl)oxy)methyl)phenyl)(4-phenylpiperazin-1-yl)methanone], the half-inhibitory concentration (IC50) is under 100 nM.

With `NCc1cc(Oc2cccc3c2CCC(=O)N3)ncn1` [Compound 1-101, 5-((6-(Aminomethyl)pyrimidin-4-yl)oxy)-3,4-dihydroquinolin-2(1H)-one], the IC50 was under 100 nM.

As for `CS(=O)(=O)CCn1ccc2c(Oc3cc(CN)ncn3)cccc21` [Compound 1-25, (6-((1-(2-(Methylsulfonyl)ethyl)-1H-indol-4-yl)oxy)pyrimidin-4-yl)methanamine], the half-inhibitory concentration (IC50) is under 100 nM.

As to `NCc1cc(Oc2cccc(C(=O)NCc3cc4ccccc4[nH]3)c2)ncn1` [Compound 1-53, N-((1H-Indol-2-yl)methyl)-3-((6-(aminomethyl)pyrimidin-4-yl)oxy)benzamide], the concentration for half-maximal inhibition (IC50) is under 100 nM.

With `NCc1cc(OCc2cccc(C(=O)NCCn3cnnn3)c2)ncn1` [Compound 1-46, N-(2-(1H-Tetrazol-1-yl)ethyl)-3-(((6-(aminomethyl)pyrimidin-4-yl)oxy)methyl)benzamide], the half-inhibitory concentration (IC50) is under 100 nM.

As to `NCc1cc(OCc2cccc(C(=O)NCc3cc4ccccc4[nH]3)c2)ncn1` [Compound 1-84, N-((1H-indol-2-yl)methyl)-3-(((6-(aminomethyl)pyrimidin-4-yl)oxy)methyl)benzamide], the IC50 is under 100 nM.

As for `NCc1cc(Oc2cccc(C(=O)N3CCc4cccnc43)c2)ncn1` [Compound 1-51, (3-((6-(Aminomethyl)pyrimidin-4-yl)oxy)phenyl)(2,3-dihydro-H-pyrrolo[2,3-b]pyridin-1-yl)methanone, hydrochloride], the half-maximal inhibitory concentration (IC50) is under 100 nM.

For `NCc1cc(Oc2cccc3c2CCC(=O)N3CC(=O)O)ncn1` [Compound 1-14, 2-(5-((6-(Aminomethyl)pyrimidin-4-yl)oxy)-2-oxo-3,4-dihydroquinolin-1(2H)-yl)acetic Acid Hydrochloride], the IC50 lay within 100 to 1000 nM.

On to `CN(Cc1cccc(C(=O)Nc2ccccc2)c1)c1cc(CN)ncn1` [Compound 1-45, 3-(((6-(Aminomethyl)pyrimidin-4-yl)(methyl)amino)methyl)-N-phenylbenzamide], for which the IC50 fell in the range of 100 to 1000 nM.

In turn, `COc1ccc(Cn2ccc3cc(Oc4cc(CN)ncn4)ccc32)cn1` [Compound 1-29, (6-((1-((6-Methoxypyridin-3-yl)methyl)-1H-indol-5-yl)oxy)pyrimidin-4-yl)methanamine] came in with a half-inhibitory concentration (IC50) of under 100 nM.

For the molecule `NCc1cc(NCc2cccc(C(=O)NCc3cc4ccccc4s3)c2)ncn1` [Compound 1-97, 3-(((6-(Aminomethyl)pyrimidin-4-yl)amino)methyl)-N-(benzo[b]thiophen-2-ylmethyl)benzamide], the IC50 is under 100 nM.

Consider `COC(=O)c1cccc(Cn2ccc3c(Oc4cc(CN)ncn4)cccc32)c1` [Compound 1-27, Methyl 3-((4-((6-(aminomethyl)pyrimidin-4-yl)oxy)-1H-indol-1-yl)methyl)benzoate], for which the IC50 was under 100 nM.

`NCc1cc(NCc2cccc(C(=O)N3CCN(c4ccccc4)CC3)c2)ncn1` [Compound 1-100, (3-(((6-(Aminomethyl)pyrimidin-4-yl)amino)methyl)phenyl)(4-phenylpiperazin-1-yl)methanone] displayed an IC50 of 100 to 1000 nM.

On to `NCc1cc(OCc2cccc(C(=O)NCc3ccnc(Cl)c3)c2)ncn1` [Compound 1-80, 3-(((6-(Aminomethyl)pyrimidin-4-yl)oxy)methyl)-N-((2-chloropyridin-4-yl)methyl)benzamide], for which the concentration for half-maximal inhibition (IC50) is under 100 nM.
